Experimental data published in US20070099822A1, “Regulation of tissue mineralization and phosphate metabolism by asarm peptides” (priority 2003, published 2007).
Values joined by “and” are separate entries in the source; they are usually repeats but may differ in a detail not shown here. Equal values may be shown once. “Also recorded” adds a separate entry of the source.

Columns and labels:
Format in all cases: in vivo
mice [1] = experiment: Example III: subcutaneous injection once a day for 12 days, mineralization and phosphate handling; settings: ASARM peptide 2 mg/kg/day; for Phosphate Excretion Index (PEI) / increase in urinary calcium levels compared to the control / inhibition in tooth mineralization / inhibition of mineralization in femur / inhibition of mineralization in tibia/femur / mineralization of calvariae and long bones / renal phosphorous clearance vs vehicle / serum calcium vs control / serum phosphate / tubular reabsorption of phosphate vs vehicle / urinary phosphate excreted in a 24-hour period vs control / urine creatinine / urine phosphate / Fractional Excretion of Phosphate (FEP) vs vehicle / inhibition of mineralization of calvariae: etidronate 10 mg/kg/day; for Fractional Excretion of Phosphate (FEP) vs vehicle / inhibition of mineralization of calvariae: s.c. once a day 12 days; for inhibition of mineralization of calvariae: calcein
Description: (§1) FIGS. 14a and 14b show the Fractional Excretion of Phosphate (FEP) in two different experiments. In the experiment shown in FIG. 14a, each of three groups of mice was treated with one injection per day, over two weeks, of either: (a) vehicle alone, (b) etidronate (10 mg/kg/day), or (c) ASARM peptide (2 mg/kg/day). In the experiment show in FIG. 14b, each of four groups of mice was treated with two injections per day, over three weeks, of either: (a) vehicle alone, (b) etidronate (60 mg/kg/day), (c) ASARM (1.34 mg/kg/day; “ASARM-low”), or (d) ASARM (4.00 mg/kg/day; “ASARM-high”).
Three groups of 5 mice each received a subcutaneous injection once a day for 12 days. […] Calcein was given at 20 mg/kg/day on days 3, 5, 8, and 10 to allow visualization. The first group of mice were given an injection of vehicle only. The second group of mice were given etidronate at 10 mg/kg/day. The third group of mice were given ASARM peptide at 2 mg/kg/day.

mice [2] = experiment: Example II: subcutaneous injection twice a day for three weeks, serum and urine; settings: for serum phosphate: three weeks, vehicle 9.62; for serum calcium vs vehicle / serum alkaline phosphatase vs vehicle: etidronate 60 mg/kg/day; for serum alkaline phosphatase vs vehicle: ASARM 1.3 and 4 mg/kg/day (both groups); for % FEP vs control: two injections per day over three weeks, ASARM 1.34 and 4.00 mg/kg/day
Description: Four groups of 7 mice were injected subcutaneously twice a day for three weeks. The first group received vehicle only as a control, the second group received etidronate at 60 mg/kg/day, the third group received ASARM peptide at 1.3 mg/kg/day (“low ASARM”), and the fourth group received ASARM peptide at 4 mg/kg/day (“high ASARM”). Calcein/tetracycline was administered to the animals 4 days and 2 days before the end of the protocol for visualization purposes.
as §1

male ICR Swiss mice = experiment: Example VI: subcutaneous PO4-ASARM-peptide or etidronate, calcein fluorescence and Sanderson osteoid staining
Description: Subcutaneous administration of PO4-ASARM-peptide, etidronate (EHDP), and calcein. Three separate groups of male ICR Swiss mice (4-5 weeks) were subcutaneously injected once a day (9:00AM), for 12 days except for days 6 and 7 with 50 μL solutions of either (1) Eitidronate (EHDP) (10 mg/kg/day); (2) PO4-ASARM-peptide (2 mg/kg/day); or (3) vehicle consisting of 5 mM HEPES pH 7.4/150 mM NaCL/0.1% BSA. The synthetic PO4-ASARM-peptide was dissolved in vehicle (1.0 mg/mL). Etidronate was first dissolved in 150 mM NaCl and then buffered to pH 7.5 with 1M NaOH to give a 5 mg/mL solution. The 10 mg/kg/day doses of etidronate have previously been reported to inhibit mineralization in rats and were used as positive controls (Trechsel, et al., Am J Physiol 232(3):E298-305, 1977; Bonjour, et al., Am J Physiol 229(2):402-8, 1975). All three groups were subcutaneously injected with calcein (20 mg/kg/day) on days 3, 5, […]. The degree of calcein fluorescence and/or fluorescence-quenching is an indicator of mineralization status (see next section). The calcein injections when given were administered 1 h after the daily injections of PO4-ASARM-peptide, EHDP or vehicle. Animals were then terminated humanely and calvariae plus femurs/tibia were fixed in 70% ethanol (non-decalcified). After fluorescence imaging (see FIG. 35) calvariae were processed in plastic and stained with Sanderson's stain (see below). Five animals per group were used for statistical analysis of fluorescence quenching and histological Sanderson staining.
Calcein fluorescence in mice calvariae, hind-limbs & fluor-imager analysis of mineralization. A Bio-Rad (Hercules, Calif.) FluorImager^max fluorescent imager was used to simultaneously image all the samples from each of the 3 groups (15 animals; five animals per group). This consisted of 10 tibia/femurs and 5 calvariae per group. Samples were placed on top of the FluorImager plate contained within a light-tight box. Ultra-violet light was used to generate calcein-mediated epi-fluorescence and the fluorescent-image was captured on a −40° C., peltier-cooled, 1,340×1040 pixel CCD resolution, CCD digital-camera. Quantitation of fluorescence was carried out using Quantity-1 (Bio-Rad, Hercules, Calif.) fluorescence-software. Pixel saturation was prevented by internal software calibration and exposure adjustment. All fluorescence readings were thus accurately quantitative and non-saturating. Photo-micrographic UV fluorescent analysis of calvarial cross sections embedded in plastic and mounted as slides (<100 micrometer sections) was also undertaken and a description of the fixation and processing is given in the next section.
Sanderson-staining and fluorescence detection of calvarial osteoid & mineralized bone. Staining of non-decalcified calvarial sections was performed using the method described by Sanderson and Bachus (Staining technique to differentiate mineralized and demineralized bone in ground sections, J Histotechnol 20(2): 119-122, 1997). This technique provides differential staining between unmineralized osteoid and mineralized bone. Prior to staining, calvariae were dissected and attached tissue removed. Calvariae were then placed in 70% ethanol for further fixation as described by Sanderson and Bachus (supra). After fixing and processing undecalcified calvariae were embedded in plastic (LR-white acrylic resin (London Resin Co., Reading, England)) as previously described (Garrett, et al., Selective inhibitors of the osteoblast proteasome stimulate bone formation in vivo and in vitro, J Clin Invest 111(11):1771-1782, 2003). Plastic embedded sections were ground to <100 micrometers using a specialized grinding-pestle as described by Donath and Breuner (A method for the study of undecalcified bones and teeth with attached soft tissues. The Sage-Schliff (sawing and grinding) technique, J Oral Pathol 11(4):318-26, 1982). […]

[3] = PO4-ASARM-peptide 2 mg/kg/day, etidronate 10 mg/kg/day

Compound	increase in urinary calcium levels compared to the control (mice [1])	inhibition in tooth mineralization (mice [1])	inhibition of mineralization in femur (mice [1])	inhibition of mineralization in tibia/femur (mice [1])	mineralization of calvariae and long bones (mice [1])	serum calcium vs control (mice [1])	tubular reabsorption of phosphate vs vehicle (mice [1])	urinary phosphate excreted in a 24-hour period vs control (mice [1])	urine creatinine (mice [1])	urine phosphate (mice [1])	Fractional Excretion of Phosphate (FEP) vs vehicle (mice [1])	inhibition of mineralization of calvariae (mice [1])	serum calcium vs vehicle (mice [2]; ASARM 1.3 and 4 mg/kg/day)	serum alkaline phosphatase vs vehicle (mice [2])	other results
CC(O)(P(=O)(O)O)P(=O)(O)O [etidronate, reference compound]	75.9%	53.2%	15.8%	19.2%	greatly inhibited	slightly higher level	higher	far less phosphate	significant elevation; also recorded: significantly elevated	induced hypophosphaturia	significantly lower	48.4%	lower serum calcium levels	significantly higher levels	Phosphate Excretion Index (PEI) (mice [1]): lower PEI; renal phosphorous clearance vs vehicle (mice [1]): significantly less phosphate clearance; serum phosphate (mice [1]): induce hyperphosphatemia; serum phosphate (mice [2]; etidronate 60 mg/kg/day s.c. twice a day): 10.04 mg/dL; increase of osteoid layer thickness relative to vehicle (male ICR Swiss mice; [3]): 2.35 fold; percentage quenching of calvarial calcein fluorescence relative to vehicle (male ICR Swiss mice; [3]): 48% and 48.4%; calvariae calcein fluorescence (male ICR Swiss mice; PO4-ASARM-peptide 2 mg/kg/day, etidronate 10 mg/kg/day, s.c. 12 days, vehicle 1100.5): 417.7 fluorescent intensity units; calvarial osteoid relative thickness (Sanderson staining) (male ICR Swiss mice; PO4-ASARM-peptide 2 mg/kg/day, etidronate 10 mg/kg/day, vehicle 2.3): 5.4; lamellar calcein fluorescent layers in calvarial cross-sections (male ICR Swiss mice; four layers visible in vehicle group): complete absence
ASARM peptide: ASARM peptide injected subcutaneously in Examples II and III; sequence and phosphorylation not stated; data resemble PO4-ASARM-peptide of Example VI (RDDSSESSDSGSSSESDGD)	56.3%	35.3%	44.6%	24.4%	mineralization was inhibited	did not show a significantly elevated level	higher	far less phosphate	significant elevation; also recorded: significantly elevated	induced hypophosphaturia	significantly lower; also recorded: decreased	62.0%	lower serum calcium levels	levels similar to that of the vehicle; also recorded: levels similar to that of the control	serum alkaline phosphatase vs etidronate or vehicle groups (mice [1]): lower levels; Phosphate Excretion Index (PEI) (mice [1]; listed as ASARM): much lower PEI; mineralization of calvariae and long bones (mice [1]; listed as ASARM): greatly inhibited; renal phosphorous clearance vs vehicle (mice [1]; listed as ASARM): significantly less phosphate clearance; serum phosphate (mice [1]; listed as ASARM): induced hyperphosphatemia; urinary phosphate excreted in a 24-hour period vs control (mice [1]; listed as ASARM): far less; urine phosphate (mice [1]; listed as ASARM): hypophosphaturia; % FEP vs control (mice [1]; one injection per day over two weeks): significantly lower % FEP; also recorded: decrease in FEP; urinary phosphate excretion over 24 hours vs etidronate and control groups (mice [2]; ASARM 1.3 and 4 mg/kg/day): significantly higher; serum phosphate (mice [2]; ASARM high, 4 mg/kg/day s.c. twice a day): 10.01 mg/dL; serum phosphate (mice [2]; ASARM low, 1.3 mg/kg/day s.c. twice a day): 10.60 mg/dL; % FEP vs control (mice [2]): increase in FEP; % FEP vs control (mice [2]; listed as ASARM): much higher % FEP levels
